According to the NIST ThermoML archive (doi:10.1021/je300134c):
± gives the expanded uncertainty stated by the source.

Assay: xn = mol fraction of the nth substance listed
Conditions: 101 kPa, Liquid; for speed of sound: Sing-around technique in a fixed-path interferometer; for mass density: Vibrating tube method

**Q.** For CCCCn1cc[n+](C)c1.O=S(=O)([O-])C(F)(F)F [1-butyl-3-methylimidazolium trifluoromethanesulfonate] + O, which speed of sound (318.15 K, x1 = 0.05002) is on record?
**A.** Its speed of sound is 1525.8 ± 0.77 m/s.

**Q.** And the speed of sound (318.15 K, x1 = 0.09974)?
**A.** The speed of sound was 1486.9 ± 0.79 m/s.

**Q.** What about the speed of sound (318.15 K, x1 = 0.1499) of the same compound?
**A.** The speed of sound was 1459.8 ± 0.82 m/s.

**Q.** And the speed of sound (318.15 K, x1 = 0.3013)?
**A.** Its speed of sound is 1411.4 ± 0.98 m/s.

**Q.** And the speed of sound (318.15 K, x1 = 0.3994)?
**A.** Its speed of sound is 1393.8 ± 1.1 m/s.

**Q.** And the speed of sound (318.15 K, x1 = 0.4973)?
**A.** Its speed of sound is 1381.7 ± 1.2 m/s.

**Q.** What about the speed of sound (318.15 K, x1 = 0.5999) of the same compound?
**A.** Its speed of sound is 1371.7 ± 1.4 m/s.

**Q.** And the speed of sound (318.15 K, x1 = 0.6988)?
**A.** The speed of sound was 1364.7 ± 1.6 m/s.

**Q.** What about the speed of sound (318.15 K, x1 = 0.8953) of the same compound?
**A.** The speed of sound was 1353.8 ± 1.9 m/s.

**Q.** And the speed of sound (318.15 K, x1 = 1)?
**A.** Its speed of sound is 1349 ± 2.1 m/s.

**Q.** What about the mass density (318.15 K, x1 = 0.05002) of the same compound?
**A.** The mass density was 1103.96 ± 0.09 kg/m3.

**Q.** And the mass density (318.15 K, x1 = 0.09974)?
**A.** The mass density was 1156.58 ± 0.12 kg/m3.

**Q.** What about the mass density (318.15 K, x1 = 0.1499) of the same compound?
**A.** Its mass density is 1187.4 ± 0.15 kg/m3.

**Q.** What about the mass density (318.15 K, x1 = 0.3013) of the same compound?
**A.** The mass density was 1232.82 ± 0.26 kg/m3.

**Q.** What about the mass density (318.15 K, x1 = 0.3994) of the same compound?
**A.** Its mass density is 1247.58 ± 0.35 kg/m3.

**Q.** And the mass density (318.15 K, x1 = 0.4973)?
**A.** The mass density was 1257.33 ± 0.47 kg/m3.

**Q.** What about the mass density (318.15 K, x1 = 0.5999) of the same compound?
**A.** The mass density was 1265.05 ± 0.62 kg/m3.

**Q.** What about the mass density (318.15 K, x1 = 0.6988) of the same compound?
**A.** The mass density was 1270.58 ± 0.79 kg/m3.

**Q.** And the mass density (318.15 K, x1 = 0.8953)?
**A.** The mass density was 1278.27 ± 1.2 kg/m3.

**Q.** What about the mass density (318.15 K, x1 = 1) of the same compound?
**A.** The mass density was 1280.95 ± 1.5 kg/m3.

**Q.** What about the speed of sound (328.15 K, x1 = 0.05002) of the same compound?
**A.** The speed of sound was 1515.2 ± 0.77 m/s.

**Q.** What about the speed of sound (328.15 K, x1 = 0.09974) of the same compound?
**A.** Its speed of sound is 1470.6 ± 0.78 m/s.

**Q.** What about the speed of sound (328.15 K, x1 = 0.1499) of the same compound?
**A.** The speed of sound was 1440.5 ± 0.81 m/s.

**Q.** What about the speed of sound (328.15 K, x1 = 0.3013) of the same compound?
**A.** Its speed of sound is 1389.8 ± 0.97 m/s.

**Q.** And the speed of sound (328.15 K, x1 = 0.3994)?
**A.** The speed of sound was 1372.1 ± 1.1 m/s.

**Q.** What about the speed of sound (328.15 K, x1 = 0.4973) of the same compound?
**A.** The speed of sound was 1359.9 ± 1.2 m/s.

**Q.** What about the speed of sound (328.15 K, x1 = 0.5999) of the same compound?
**A.** Its speed of sound is 1350.1 ± 1.4 m/s.

**Q.** What about the speed of sound (328.15 K, x1 = 0.6988) of the same compound?
**A.** Its speed of sound is 1343.2 ± 1.6 m/s.

**Q.** And the speed of sound (328.15 K, x1 = 0.8953)?
**A.** The speed of sound was 1332.5 ± 1.9 m/s.

**Q.** What about the speed of sound (328.15 K, x1 = 1) of the same compound?
**A.** The speed of sound was 1327.8 ± 2.1 m/s.

**Q.** What about the mass density (328.15 K, x1 = 0.05002) of the same compound?
**A.** The mass density was 1096.85 ± 0.08 kg/m3.

**Q.** What about the mass density (328.15 K, x1 = 0.09974) of the same compound?
**A.** The mass density was 1148.65 ± 0.11 kg/m3.

**Q.** What about the mass density (328.15 K, x1 = 0.1499) of the same compound?
**A.** The mass density was 1179.14 ± 0.14 kg/m3.

**Q.** And the mass density (328.15 K, x1 = 0.3013)?
**A.** Its mass density is 1224.48 ± 0.25 kg/m3.

**Q.** What about the mass density (328.15 K, x1 = 0.3994) of the same compound?
**A.** Its mass density is 1239.35 ± 0.35 kg/m3.

**Q.** And the mass density (328.15 K, x1 = 0.4973)?
**A.** Its mass density is 1249.21 ± 0.47 kg/m3.

**Q.** And the mass density (328.15 K, x1 = 0.5999)?
**A.** Its mass density is 1257.03 ± 0.61 kg/m3.

**Q.** What about the mass density (328.15 K, x1 = 0.6988) of the same compound?
**A.** The mass density was 1262.64 ± 0.78 kg/m3.

**Q.** What about the mass density (328.15 K, x1 = 0.8953) of the same compound?
**A.** The mass density was 1270.44 ± 1.2 kg/m3.

**Q.** And the mass density (328.15 K, x1 = 1)?
**A.** Its mass density is 1273.16 ± 1.4 kg/m3.

**Q.** What about the speed of sound (338.15 K, x1 = 0.05002) of the same compound?
**A.** Its speed of sound is 1502.3 ± 0.76 m/s.

**Q.** What about the speed of sound (338.15 K, x1 = 0.09974) of the same compound?
**A.** Its speed of sound is 1452.7 ± 0.78 m/s.

**Q.** What about the speed of sound (338.15 K, x1 = 0.1499) of the same compound?
**A.** Its speed of sound is 1420.3 ± 0.81 m/s.

**Q.** And the speed of sound (338.15 K, x1 = 0.3013)?
**A.** The speed of sound was 1368.1 ± 0.96 m/s.

**Q.** And the speed of sound (338.15 K, x1 = 0.3994)?
**A.** The speed of sound was 1350.4 ± 1.1 m/s.

**Q.** What about the speed of sound (338.15 K, x1 = 0.4973) of the same compound?
**A.** The speed of sound was 1338.3 ± 1.2 m/s.

**Q.** What about the speed of sound (338.15 K, x1 = 0.5999) of the same compound?
**A.** Its speed of sound is 1328.7 ± 1.4 m/s.

**Q.** And the speed of sound (338.15 K, x1 = 0.6988)?
**A.** Its speed of sound is 1321.6 ± 1.6 m/s.

**Q.** What about the speed of sound (338.15 K, x1 = 0.8953) of the same compound?
**A.** The speed of sound was 1311.2 ± 1.9 m/s.

**Q.** And the speed of sound (338.15 K, x1 = 1)?
**A.** Its speed of sound is 1307 ± 2.1 m/s.

**Q.** What about the mass density (338.15 K, x1 = 0.05002) of the same compound?
**A.** Its mass density is 1089.38 ± 0.08 kg/m3.

**Q.** What about the mass density (338.15 K, x1 = 0.09974) of the same compound?
**A.** The mass density was 1140.47 ± 0.11 kg/m3.

**Q.** And the mass density (338.15 K, x1 = 0.1499)?
**A.** Its mass density is 1170.71 ± 0.14 kg/m3.

**Q.** And the mass density (338.15 K, x1 = 0.3013)?
**A.** Its mass density is 1216.08 ± 0.25 kg/m3.

**Q.** What about the mass density (338.15 K, x1 = 0.3994) of the same compound?
**A.** Its mass density is 1231.09 ± 0.34 kg/m3.

**Q.** What about the mass density (338.15 K, x1 = 0.4973) of the same compound?
**A.** Its mass density is 1241.08 ± 0.46 kg/m3.

**Q.** And the mass density (338.15 K, x1 = 0.5999)?
**A.** The mass density was 1249.02 ± 0.6 kg/m3.

**Q.** What about the mass density (338.15 K, x1 = 0.6988) of the same compound?
**A.** The mass density was 1254.72 ± 0.77 kg/m3.

**Q.** And the mass density (338.15 K, x1 = 0.8953)?
**A.** Its mass density is 1262.66 ± 1.2 kg/m3.

**Q.** What about the mass density (338.15 K, x1 = 1) of the same compound?
**A.** Its mass density is 1265.44 ± 1.4 kg/m3.
